In patent US9365566B2 (Takeda Pharmaceutical Company Limited, priority 2012, dated 2016):

The compounds below were run against T1, human BTK (Homo sapiens, UniProt Q06187) (assay: BTK inhibition assay: BTK-mediated phosphorylation of FAM-labeled substrate 5-FAM-EEPLYWSFPAKKK-NH2 (Caliper LC-3000)). Conditions: pIC50 = -log(IC50), IC50 molar; residues 382 to 659 of human BTK; incubated at room temperature for 60 minutes; larger values represent higher potency.
T1 construct: GST (Glutathione-S-Transferase) (cleaved yes); made in house; host or cells: Spodoptera frugiperda Sf9 cells (baculovirus, Bac-to-Bac)
Format: biochemical

T1 sequence (Q06187 382-659): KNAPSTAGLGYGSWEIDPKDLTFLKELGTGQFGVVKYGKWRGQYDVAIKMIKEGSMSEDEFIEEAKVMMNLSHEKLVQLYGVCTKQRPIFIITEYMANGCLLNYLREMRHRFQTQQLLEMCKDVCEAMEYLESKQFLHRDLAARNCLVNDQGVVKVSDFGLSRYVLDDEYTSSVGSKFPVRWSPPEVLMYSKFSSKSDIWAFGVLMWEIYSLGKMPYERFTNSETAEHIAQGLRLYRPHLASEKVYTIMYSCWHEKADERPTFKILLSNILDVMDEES

| SMILES | IC50 [µM] |
| --- | --- |
| Cc1ccc2c(N)c(C(N)=O)nnc2c1-c1ccc2cncn2c1 [Example 113, 4-amino-8-(imidazo[1,5-a]pyridin-6-yl)-7-methylcinnoline-3-carboxamide] | 0.02 |
| Cc1ccc2c(N)c(C(N)=O)nnc2c1-c1cc(F)c2cn[nH]c2c1 [Example 102, 4-amino-8-(4-fluoro-1H-indazol-6-yl)-7-methylcinnoline-3-carboxamide] | 0.0251 |
| Cc1nn(C)c2ccc(-c3cccc4c(N)c(C(N)=O)nnc34)cc12 [Example 37, 4-amino-8-(1,3-dimethyl-1H-indazol-5-yl)cinnoline-3-carboxamide] | 3.98 |
| Cc1ccc2c(N)c(C(N)=O)nnc2c1-c1ccc2cn[nH]c2c1F [Example 104, 4-amino-8-(7-fluoro-1H-indazol-6-yl)-7-methylcinnoline-3-carboxamide] | 0.0316 |
| Cn1cc2cc(-c3cccc4c(N)c(C(N)=O)nnc34)ccc2n1 [Example 11, 4-amino-8-(2-methyl-2H-indazol-5-yl)cinnoline-3-carboxamide] | 1 |
| Cc1ccc2c(N)c(C(N)=O)nnc2c1-c1ccc2c(Cl)n[nH]c2c1 [Example 108, 4-amino-8-(3-chloro-1H-indazol-6-yl)-7-methylcinnoline-3-carboxamide] | 0.0398 |
| Cc1ccc2c(N)c(C(N)=O)nnc2c1-c1ccc2ncn(C)c2c1 [Example 23, 4-amino-7-methyl-8-(1-methyl-1H-benzo[d]imidazol-6-yl)cinnoline-3-carboxamide] | 0.0501 |
| NC(=O)c1nnc2c(-c3ccc4nc(-c5cc(Cl)cc(Cl)c5)[nH]c4c3)cccc2c1N [Example 67, 4-amino-8-(2-(3,5-dichlorophenyl)-1H-benzo[d]imidazol-6-yl)cinnoline-3-carboxamide] | 0.0631 |
| Cc1ccc2c(N)c(C(N)=O)nnc2c1-c1ccc2cnccc2c1 [Example 58, 4-amino-8-(isoquinolin-6-yl)-7-methylcinnoline-3-carboxamide] | 0.0501 |
| NC(=O)c1nnc2c(N3CCc4[nH]ncc4C3)cccc2c1N [Example 86, 4-amino-8-(6,7-dihydro-1H-pyrazolo[4,3-c]pyridin-5(4H)-yl)cinnoline-3-carboxamide] | 2 |
| NC(=O)c1nnc2c(-c3ccc4nc(C5CCCC5)[nH]c4c3)cccc2c1N [Example 72, 4-amino-8-(2-cyclopentyl-1H-benzo[d]imidazol-6-yl)cinnoline-3-carboxamide] | 1.26 |
| NC(=O)c1nnc2c(-c3ccc4nccn4c3)cccc2c1N [Example 10, 4-amino-8-(imidazo[1,2-a]pyridin-6-yl)cinnoline-3-carboxamide] | 0.631 |
| NC(=O)c1nnc2c(-c3ccc4nc(C5CCC(F)(F)CC5)[nH]c4c3)cccc2c1N [Example 84, 4-amino-8-(2-(4,4-difluorocyclohexyl)-1H-benzo[d]imidazol-6-yl)cinnoline-3-carboxamide] | 0.398 |
| Cc1ccc2c(N)c(C(N)=O)nnc2c1-c1ccn2cncc2c1 [Example 114, 4-amino-8-(imidazo[1,5-a]pyridin-7-yl)-7-methylcinnoline-3-carboxamide] | 0.00398 |
| Cc1ccc2c(N)c(C(N)=O)nnc2c1-c1ccc2ncn(CCC#N)c2c1 [Example 133, 4-amino-8-(1-(2-cyanoethyl)-1H-benzo[d]imidazol-6-yl)-7-methylcinnoline-3-carboxamide] | 0.501 |

Further lines, results first:

| IC50 [µM] | SMILES |
| --- | --- |
| 0.794 | Cc1nc2ccc(-c3cccc4c(N)c(C(N)=O)nnc34)cc2[nH]1 [Example 16, 4-amino-8-(2-methyl-1H-benzo[d]imidazol-6-yl)cinnoline-3-carboxamide] |
| 0.0158 | NC(=O)c1nnc2c(-c3cc4[nH]ncc4cc3Cl)cccc2c1N [Example 105, 4-amino-8-(5-chloro-1H-indazol-6-yl)cinnoline-3-carboxamide] |
| 0.631 | NC(=O)c1nnc2c(-c3ccc4[nH]c(=O)[nH]c4c3)cccc2c1N [Example 14, 4-amino-8-(2-oxo-2,3-dihydro-1H-benzo[d]imidazol-5-yl)cinnoline-3-carboxamide] |
| 0.2 | N#Cc1nc2ccc(-c3cccc4c(N)c(C(N)=O)nnc34)cc2[nH]1 [Example 130, 4-amino-8-(2-cyano-1H-benzo[d]imidazol-6-yl)cinnoline-3-carboxamide] |
| 0.316 | Cc1c(-c2cccc3c(N)c(C(N)=O)nnc23)ccc2c1cnn2C [Example 30, 4-amino-8-(1,4-dimethyl-1H-indazol-5-yl)cinnoline-3-carboxamide] |
| 0.00631 | Cc1cc2cn[nH]c2cc1-c1ccc(F)c2c(N)c(C(N)=O)nnc12 [Example 43, 4-amino-5-fluoro-8-(5-methyl-1H-indazol-6-yl)cinnoline-3-carboxamide] |
| 0.126 | N#Cc1ccc2c(N)c(C(N)=O)nnc2c1-c1ccc2cn[nH]c2c1 [Example 135, 4-amino-7-cyano-8-(1H-indazol-6-yl)cinnoline-3-carboxamide] |
